GI50 and TGI data for 14 compounds are collected here from PubChem BioAssay (NCI).

Test systems include RPMI-8226 leukemia; SK-MEL-5 melanoma; M14 melanoma; RXF 393 renal; OVCAR-4 ovarian; K-562 leukemia; SK-MEL-28 melanoma; DU-145 prostate; UO-31 renal; OVCAR-8 ovarian.
What all share (assay): NCI tumour cell line growth inhibition, 48 h

Several values for one entry are separate records, joined by “and”; a condition that tells them apart may be missing. Equal values may be shown once.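 Test compounds were applied to cells in 96-well plates for 48 hours at 5 doses. GI50 is the concentration that inhibits growth by half. At the TGI there is no net growth.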

Turning to `CCCCCCCCCCC(O)C1CCC(C2CCC(C(O)CCCCC(O)CCCCCC(O)CC3=CC(C)OC3=O)O2)O1` (stereo not given), the GI50 in the assay with RPMI-8226 leukemia was 2 µM; in the assay with SK-MEL-5 melanoma, 1.83 µM; in the assay on M14 melanoma, 3.76 µM; with K-562 leukemia it was 1.81 µM; in the assay on SK-MEL-28 melanoma, 4.28 µM; in the assay on DU-145 prostate, > 25 µM. The GI50 in the assay on UO-31 renal is 1.74 µM. In addition, the TGI in the assay with RPMI-8226 leukemia is > 25 µM; with SK-MEL-5 melanoma, 7.33 µM and > 25 µM; in the assay with M14 melanoma, > 25 µM; in the assay with RXF 393 renal, > 25 µM; with OVCAR-4 ovarian it was > 25 µM; with K-562 leukemia, > 25 µM. The TGI in the assay with SK-MEL-28 melanoma was > 25 µM; with DU-145 prostate, > 25 µM; in the assay with UO-31 renal, 9.95 µM and > 25 µM.
Consider `CCCCC/C=C/C/C=C/CCCCCCCC1=NC(C)(C)CN1C(C)C`, for which the GI50 was 1.85 µM with M14 melanoma; 2.1 µM with RXF 393 renal; 1.55 µM in the assay with OVCAR-4 ovarian; 1.7 µM in the assay on SK-MEL-28 melanoma; 1.73 µM in the assay with DU-145 prostate; 1.21 µM with UO-31 renal. For the same compound, the TGI in the assay on M14 melanoma was 3.4 µM; in the assay on RXF 393 renal, 4.8 µM; with OVCAR-4 ovarian it was 3 µM; with SK-MEL-28 melanoma it was 3.07 µM; in the assay on DU-145 prostate, 3.11 µM; in the assay with UO-31 renal, 2.45 µM.
Consider `CCCCn1c(-c2ccc(C(=O)O/N=C(\N)c3ccc(OC)cc3)cc2)nc(-c2ccccc2)c1-c1ccccc1`, for which the GI50 in the assay on M14 melanoma was 3.07 µM; in the assay with RXF 393 renal it was 1.64 µM; in the assay on SK-MEL-28 melanoma, 2.75 µM; with DU-145 prostate, 1.27 µM; with UO-31 renal, 0.458 µM. Also, the TGI in the assay on M14 melanoma is > 100 µM; with RXF 393 renal, 3.24 µM; in the assay with SK-MEL-28 melanoma, > 100 µM; in the assay on DU-145 prostate, 2.59 µM; in the assay on UO-31 renal, 1.65 µM.
As for `COc1cc2c3c(n(CCCCl)c(=O)c2cc1OC)-c1ccccc1C3=O`, the GI50 with RPMI-8226 leukemia is 25.4 µM; with OVCAR-8 ovarian, 13.4 µM; in the assay on SK-MEL-5 melanoma it was 21.9 µM; with M14 melanoma, 5.96 µM; in the assay with K-562 leukemia it was > 100 µM; with DU-145 prostate, > 100 µM. In addition, in the assay with UO-31 renal, the GI50 was > 100 µM. Also, the TGI with RPMI-8226 leukemia, in the assay with OVCAR-8 ovarian, with SK-MEL-5 melanoma, with M14 melanoma, with K-562 leukemia and in the assay on DU-145 prostate was > 100 µM throughout. For the same compound, in the assay on UO-31 renal, the TGI was > 100 µM.
Turning to `Cc1cc(C)cc(Nc2cc(C)nc3nc(C(F)(F)F)nn23)c1`, the GI50 is > 100 µM with RPMI-8226 leukemia; > 100 µM in the assay with OVCAR-8 ovarian; > 100 µM in the assay on SK-MEL-5 melanoma; > 100 µM with M14 melanoma; 24.3 µM with RXF 393 renal; > 100 µM with OVCAR-4 ovarian. For the same compound, the GI50 with SK-MEL-28 melanoma, with DU-145 prostate and with UO-31 renal was > 100 µM in each case. The TGI with RPMI-8226 leukemia, in the assay on OVCAR-8 ovarian, in the assay with SK-MEL-5 melanoma, with M14 melanoma, with RXF 393 renal and in the assay with OVCAR-4 ovarian was > 100 µM throughout. Also, the TGI in the assay on SK-MEL-28 melanoma, in the assay on DU-145 prostate and in the assay on UO-31 renal was > 100 µM in each case.
Take `C[C@]12CC[C@@H]3c4ccc(Oc5nc(N6CC6)nc(N6CC6)n5)cc4CC[C@H]3[C@@H]1CCC2=O`: the GI50 with RPMI-8226 leukemia was 2.17 µM; in the assay with OVCAR-8 ovarian, 2.64 µM; in the assay with SK-MEL-5 melanoma, 1.54 µM; in the assay on M14 melanoma it was 3.58 µM; in the assay on OVCAR-4 ovarian it was 3.38 µM; in the assay with K-562 leukemia, 3.02 µM. Moreover, the GI50 with SK-MEL-28 melanoma is 6.01 µM; in the assay on DU-145 prostate, 1.82 µM; in the assay with UO-31 renal it was 2.68 µM. In addition, the TGI in the assay on RPMI-8226 leukemia worked out at 7.58 µM; with OVCAR-8 ovarian it was 23.8 µM; with SK-MEL-5 melanoma it was 3.13 µM; in the assay on M14 melanoma, 21.7 µM; with OVCAR-4 ovarian it was 15.2 µM; with K-562 leukemia, 17.5 µM. Besides, the TGI in the assay on SK-MEL-28 melanoma is 42.8 µM; in the assay on DU-145 prostate, 6.46 µM; in the assay on UO-31 renal, 13.2 µM.
For the compound `Cc1c2c(nn1-c1ccc(S(=O)(=O)/N=C3\SCC(=O)N3C(=O)c3ccccc3)cc1)-c1ccccc1CC2`, the GI50 in the assay with OVCAR-8 ovarian was 68.8 µM; with SK-MEL-5 melanoma, 25.1 µM; with M14 melanoma, 22.9 µM; in the assay with RXF 393 renal, 28.8 µM; in the assay on OVCAR-4 ovarian it was 77.5 µM; in the assay on K-562 leukemia, 79.2 µM. For the same compound, the GI50 with SK-MEL-28 melanoma is 52.5 µM; in the assay with DU-145 prostate it was 38.6 µM; in the assay with UO-31 renal, 67.4 µM. In addition, the TGI in the assay on OVCAR-8 ovarian was > 100 µM; in the assay on SK-MEL-5 melanoma, 48.9 µM; with M14 melanoma, 47.1 µM; in the assay on RXF 393 renal, 77.5 µM; in the assay with OVCAR-4 ovarian, > 100 µM; with K-562 leukemia it was > 100 µM. Also, the TGI in the assay on SK-MEL-28 melanoma, with DU-145 prostate and in the assay with UO-31 renal was > 100 µM each time.
On to `COc1ccc2cc(C(=O)/C=C/c3cccc(OC)c3OC)ccc2c1`, for which the GI50 with RPMI-8226 leukemia is 6.86 µM; in the assay with OVCAR-8 ovarian, 8.88 µM; in the assay on SK-MEL-5 melanoma it was 14.3 µM; with M14 melanoma, 4.58 µM; with RXF 393 renal, 3.76 µM; in the assay with K-562 leukemia it was 2.84 µM. The GI50 was 19.4 µM with SK-MEL-28 melanoma, 15.3 µM in the assay with DU-145 prostate and 17.5 µM with UO-31 renal. Besides, the TGI in the assay with RPMI-8226 leukemia is > 100 µM; in the assay on OVCAR-8 ovarian it was 33.6 µM; in the assay with SK-MEL-5 melanoma it was 27.4 µM; in the assay on M14 melanoma, 16.6 µM; with RXF 393 renal, 12.9 µM; with K-562 leukemia it was 12.1 µM. Besides, the TGI in the assay with SK-MEL-28 melanoma was 44.5 µM; in the assay on DU-145 prostate it was 34.2 µM; with UO-31 renal, 31.3 µM.
As for `COc1ccc(C(=O)/C=C/c2cccnc2Nc2cc(OC)c(OC)c(OC)c2)cc1`, the GI50 in the assay with RPMI-8226 leukemia is 0.885 µM; in the assay on OVCAR-8 ovarian, 2.2 µM; in the assay with SK-MEL-5 melanoma, 2.2 µM; in the assay with M14 melanoma, 2.55 µM; with RXF 393 renal, 1.47 µM; in the assay on OVCAR-4 ovarian, 1.52 µM. Also, the results for the GI50 in the assay with SK-MEL-28 melanoma, with DU-145 prostate and with UO-31 renal were 2.7 µM, 4.89 µM and 1.17 µM, respectively. Also, the TGI in the assay on RPMI-8226 leukemia turned out to be 4.71 µM; with OVCAR-8 ovarian, 11 µM; with SK-MEL-5 melanoma, 10.6 µM; in the assay with M14 melanoma it was 11.9 µM; with RXF 393 renal, 5.36 µM; in the assay with OVCAR-4 ovarian it was 10.1 µM. Moreover, the TGI in the assay on SK-MEL-28 melanoma stood at 8.29 µM; in the assay on DU-145 prostate it was 17.1 µM; with UO-31 renal it was 3.04 µM.
On to `COC(=O)C1=C(c2ccc3c(c2)OCO3)O[C@H](c2ccc3c(c2)OCO3)[C@H]1COC(C)=O`, for which the TGI in the assay with RPMI-8226 leukemia is > 100 µM; with OVCAR-8 ovarian, > 100 µM; in the assay with SK-MEL-5 melanoma, 75.2 µM; in the assay with M14 melanoma, > 100 µM; with RXF 393 renal, > 100 µM; in the assay on OVCAR-4 ovarian, > 100 µM. The TGI in the assay with K-562 leukemia, in the assay on SK-MEL-28 melanoma and in the assay on UO-31 renal was > 100 µM throughout.
Take `N#CCCN(CCC#N)c1ccc(C(=O)NN)cc1`: the TGI in the assay with RPMI-8226 leukemia, in the assay on OVCAR-8 ovarian, in the assay on SK-MEL-5 melanoma, in the assay with M14 melanoma, in the assay with RXF 393 renal and in the assay with OVCAR-4 ovarian was > 100 µM in each case. Also, the TGI with K-562 leukemia, in the assay with SK-MEL-28 melanoma and with UO-31 renal was > 100 µM throughout.
As to `COc1cc([N+](=O)[O-])ccc1NC(=O)C(F)(F)F`, the TGI in the assay on RPMI-8226 leukemia, in the assay with OVCAR-8 ovarian, in the assay on SK-MEL-5 melanoma, in the assay on M14 melanoma, with OVCAR-4 ovarian and in the assay on K-562 leukemia was > 100 µM throughout. Also, the TGI in the assay with SK-MEL-28 melanoma, in the assay with DU-145 prostate and with UO-31 renal was > 100 µM in each case.
Take `COC(=O)c1cc2c(c(C(=O)OC)c1O)C(=O)C=CC2=O`: the GI50 in the assay on RPMI-8226 leukemia was 1.79 µM; in the assay on OVCAR-8 ovarian, > 9.1 µM; in the assay on SK-MEL-5 melanoma, > 9.1 µM; in the assay with M14 melanoma, > 9.1 µM; with RXF 393 renal it was > 9.1 µM; in the assay on OVCAR-4 ovarian, > 9.1 µM. In addition, the GI50 in the assay with SK-MEL-28 melanoma and with UO-31 renal was > 9.1 µM in each case. The TGI in the assay with RPMI-8226 leukemia was > 9.1 µM and 5.6 µM; with OVCAR-8 ovarian, > 40.4 µM; in the assay with SK-MEL-5 melanoma it was > 55.1 µM; in the assay on M14 melanoma it was > 66.9 µM; in the assay with RXF 393 renal, > 48.9 µM; in the assay with OVCAR-4 ovarian, > 54 µM. For the same compound, the TGI was > 22.7 µM with K-562 leukemia, > 58.1 µM in the assay on SK-MEL-28 melanoma and > 56.9 µM with UO-31 renal.
`O=[N+]([O-])c1ccc2nnnn2c1`: the TGI is > 100 µM in the assay with OVCAR-8 ovarian; 41.4 µM in the assay on SK-MEL-5 melanoma; > 100 µM in the assay with M14 melanoma; > 100 µM in the assay with RXF 393 renal; > 100 µM in the assay with OVCAR-4 ovarian; > 100 µM in the assay on K-562 leukemia. The TGI was 61.8 µM in the assay with SK-MEL-28 melanoma, > 100 µM with DU-145 prostate and > 100 µM with UO-31 renal.
